From US6855710B2, “Substituted indolines with an inhibitory effect on various kinases and complexes of CDKs” (Boehringer Ingelheim Pharma KG, priority 1998, dated 2005)

Row | SMILES | melting point
1 | CC(=O)NCc1ccc(/C(Nc2ccc(CCNC(=O)OC(C)(C)C)cc2)=C2/C(=O)Nc3ccc([N+](=O)[O-])cc32)cc1 [Example 157, (Z)-3-{1-[4-(2-tert.butoxycarbonylamino-ethyl)-phenylamino]-1-(4-acetylaminomethyl-phenyl)-methylidene}-5-nitro-2-indolinone] | 94 °C (dec.)
2 | CC(C)(C)OC(=O)NCCc1ccc(N/C(=C2\C(=O)Nc3ccc([N+](=O)[O-])cc32)c2ccccc2)cc1 [Example 127, (Z)-3-{1-[4-(2-tert.butoxycarbonylamino-ethyl)-phenylamino]-1-phenyl-methylidene}-5-nitro-2-indolinone] | 213 to 214 °C
3 | CS(=O)(=O)N(CC(=O)O)c1ccc(N/C(=C2\C(=O)Nc3ccc([N+](=O)[O-])cc32)c2ccccc2)cc1 [Example 199, (Z)-3-{1-[4-(N-carboxymethyl-N-methylsulphonyl-amino)-phenyl-amino]-1-phenyl-methylidene}-5-nitro-2-indolinone] | 180 to 183 °C
4 | CCC(=O)N(CCN(C)C)c1ccc(N/C(=C2\C(=O)Nc3ccc([N+](=O)[O-])cc32)c2ccccc2)cc1 [Example 329, (Z)-3-{1-[4-(N-(2-dimethylaminoethyl)-N-propionyl-amino)-phenylamino]-1-phenyl-methylidene}-5-nitro-2-indolinone] | 263 to 265 °C
5 | CC(C)(C)OC(=O)NCc1cccc(N/C(=C2\C(=O)Nc3ccccc32)c2ccccc2)c1 [Example 67, (Z)-3-[1-(3-tert.butoxycarbonylaminomethyl-phenylamino)-1-phenyl-methylidene]-2-indolinone] | 190 to 195 °C
6 | O=C1Nc2ccc([N+](=O)[O-])cc2/C1=C(/Nc1ccc(CCN2CCC(O)CC2)cc1)c1ccccc1 [Example 260, (Z)-3-{1-[4-(2-(4-hydroxypiperidino)-ethyl)-phenylamino]-1-phenyl-methylidene}-5-nitro-2-indolinone] | 274 to 276 °C
7 | CCOC(=O)c1ccc(N/C(=C2\C(=O)Nc3ccccc32)c2ccccc2)cc1 [Example 13, (Z)-3-[1-(4-ethoxycarbonyl-phenylamino)-1-phenyl-methylidene]-2-indolinone] | 227 to 228 °C
8 | CNc1cccc(N/C(=C2\C(=O)Nc3ccccc32)c2ccccc2)c1 [Example 37, (Z)-3-[1-(3-methylamino-phenylamino)-1-phenyl-methylidene]-2-indolinone] | 247 to 248 °C
9 | CN(C)CCNc1ccc(N/C(=C2\C(=O)Nc3ccc([N+](=O)[O-])cc32)c2ccccc2)cc1 [Example 326, (Z)-3-{1-[4-(2-dimethylamino-ethylamino)-phenylamino]-1-phenyl-methylidene}-5-nitro-2-indolinone] | 227 to 229 °C
10 | CN(C)C(=O)CN(c1ccc(N/C(=C2\C(=O)Nc3ccc([N+](=O)[O-])cc32)c2ccccc2)cc1)S(C)(=O)=O [Example 201, (Z)-3-{1-[4-(N-dimethylaminocarbonylmethyl-N-methylsulphonyl-amino)-phenylamino]-1-phenyl-methylidene}-5-nitro-2-indolinone] | 277 to 280 °C
11 | COc1ccc(/C(Nc2ccc(CN(C)C)cc2)=C2/C(=O)Nc3ccccc32)cc1 [Example 215, (Z)-3-[1-(4-dimethylaminomethyl-phenylamino)-1-(4-methoxyphenyl)-methylidene]-2-indolinone] | 206 to 207 °C
12 | O=CNc1cccc(N/C(=C2\C(=O)Nc3ccccc32)c2ccccc2)c1 [Example 30, (Z)-3-[1-(3-formylamino-phenylamino)-1-phenyl-methylidene]-2-indolinone] | 231 °C
13 | CC(C)(C)OC(=O)NCC(=O)Nc1ccc(N/C(=C2\C(=O)Nc3ccccc32)c2ccccc2)cc1 [Example 34, (Z)-3-[1-(4-tert.butoxycarbonylaminomethylcarbonylamino-phenylamino)-1-phenyl-methylidene]-2-indolinone] | 243 to 244 °C (dec.)
14 | CCC(=O)Nc1ccc(N/C(=C2\C(=O)Nc3ccccc32)c2ccccc2)cc1 [Example 39, (Z)-3-[1-(4-propionylamino-phenylamino)-1-phenyl-methylidene]-2-indolinone] | 255 to 256 °C
15 | CC(C)(C)OC(=O)NCCc1ccc(N/C(=C2\C(=O)Nc3ccc([N+](=O)[O-])cc32)c2ccc(CN)cc2)cc1 [Example 155, (Z)-3-{1-[4-(2-tert.butoxycarbonylamino-ethyl)-phenylamino]-1-(4-aminomethyl-phenyl)-methylidene}-5-nitro-2-indolinone] | 215 to 217 °C (dec.)
16 | COc1cccc(/C(Nc2ccc(CN(C)C)cc2)=C2/C(=O)Nc3ccccc32)c1 [Example 217, (Z)-3-[1-(4-dimethylaminomethyl-phenylamino)-1-(3-methoxyphenyl)-methylidene]-2-indolinone] | 193 to 194 °C
17 | CCOC(=O)CCNCc1ccc(N/C(=C2\C(=O)Nc3ccc([N+](=O)[O-])cc32)c2ccccc2)cc1 [Example 241, (Z)-3-{1-[4-(2-ethoxycarbonyl-ethylaminomethyl)-phenylamino]-1-phenyl-methylidene}-5-nitro-2-indolinone] | 129 to 131 °C
18 | CN(C)CCN(C)C(=O)CN(c1cccc(N/C(=C2\C(=O)Nc3ccccc32)c2ccccc2)c1)S(C)(=O)=O [Example 323, (Z)-3-{1-[3-(N—((N-(2-dimethylaminoethyl)-N-methyl-amino)-carbonylmethyl)-N-methylsulphonyl-amino)-phenylamino]-1-phenyl-methylidene}-2-indolinone] | 197 to 199 °C
19 | CN(C)Cc1ccc(N/C(=C2\C(=O)Nc3ccccc32)c2ccc(Cl)cc2)cc1 [Example 221, (Z)-3-[1-(4-dimethylaminomethyl-phenylamino)-1-(4-chlorophenyl)-methylidene]-2-indolinone] | 213 °C

The remaining lines, values ahead:

Row | melting point | SMILES
20 | 270 °C (dec.) | CCC(=O)N(CC(=O)O)c1ccc(N/C(=C2\C(=O)Nc3ccccc32)c2ccccc2)cc1 [Example 357, (Z)-3-{1-[4-(N-carboxymethyl-N-propionyl-amino)-phenylamino]-1-phenyl-methylidene}-2-indolinone]
21 | 117 to 119 °C | CN(C(=O)CNCCN1CCOCC1)c1ccc(N/C(=C2\C(=O)Nc3ccccc32)c2ccccc2)cc1 [Example 373, (Z)-3-{1-[4-(N-(2-morpholinoethylaminomethylcarbonyl)-N-methyl-amino)-phenylamino]-1-phenyl-methylidene}-2-indolinone]
22 | 230 to 233 °C | COc1ccc(/C(Nc2ccc(CN3CCCCC3)cc2)=C2/C(=O)Nc3ccc([N+](=O)[O-])cc32)cc1 [Example 441, (Z)-3-[1-(4-piperidinomethyl-phenylamino)-1-(4-methoxyphenyl)-methylidene]-5-nitro-2-indolinone]
23 | 268 °C | CCC(=O)N(CC(=O)NC)c1ccc(N/C(=C2\C(=O)Nc3ccccc32)c2ccccc2)cc1 [Example 358, (Z)-3-{1-[4-(N-methylaminocarbonylmethyl-N-propionyl-amino)-phenylamino]-1-phenyl-methylidene}-2-indolinone]
24 | 281 to 283 °C | CN(C)C(=O)CNS(=O)(=O)c1ccc(N/C(=C2\C(=O)Nc3ccc([N+](=O)[O-])cc32)c2ccccc2)cc1 [Example 412, (Z)-3-{1-[4-(dimethylaminocarbonylmethylaminosulphonyl)-phenylamino]-1-phenyl-methylidene}-5-nitro-2-indolinone]
25 | 260 to 262 °C | CNC(=O)CN(C(=O)c1ccccc1)c1ccc(N/C(=C2\C(=O)Nc3ccccc32)c2ccccc2)cc1 [Example 362, (Z)-3-{1-[4-(N-methylaminocarbonylmethyl-N-benzoyl-amino)-phenylamino]-1-phenyl-methylidene}-2-indolinone]
26 | 213 to 215 °C | Cc1ccc(S(=O)(=O)N(CCN(C)C)c2ccc(N/C(=C3\C(=O)Nc4ccccc43)c3ccccc3)cc2)cc1 [Example 454, (Z)-3-[1-(4-(N-(2-dimethylaminoethyl)-N-(p-tolylsulphonyl)-amino)-phenylamino)-1-phenyl-methylidene]-2-indolinone]
27 | 264 to 268 °C | CC(=O)N(CC(=O)N(C)C)c1ccc(N/C(=C2\C(=O)Nc3ccccc32)c2ccccc2)cc1 [Example 355, (Z)-3-{1-[4-(N-dimethylaminocarbonylmethyl-N-acetyl-amino)-phenylamino]-1-phenyl-methylidene}-2-indolinone]
28 | 275 to 277 °C | CCCC(=O)N(CCN(C)C)c1ccc(N/C(=C2\C(=O)Nc3ccc([N+](=O)[O-])cc32)c2ccccc2)cc1 [Example 331, (Z)-3-{1-[4-(N-(2-dimethylaminoethyl)-N-propylcarbonyl-amino)-phenylamino]-1-phenyl-methylidene}-5-nitro-2-indolinone]
29 | 209 to 211 °C | CCOC(=O)CN(C(=O)c1ccccc1)c1ccc(N/C(=C2\C(=O)Nc3ccccc32)c2ccccc2)cc1 [Example 360, (Z)-3-{1-[4-(N-ethoxycarbonylmethyl-N-benzoyl-amino)-phenylamino]-1-phenyl-methylidene}-2-indolinone]
30 | 167 °C | CS(=O)(=O)N(CC(N)=O)c1cccc(N/C(=C2\C(=O)Nc3ccccc32)c2ccc(CN)cc2)c1 [Example 416, (Z)-3-{1-[3-(N-aminocarbonylmethyl-N-methylsulphonyl-amino)-phenylamino]-1-(4-aminomethyl-phenyl)-methylidene}-2-indolinone]
31 | 255 to 256 °C | CC(=O)NCC(=O)N(C)c1ccc(N/C(=C2\C(=O)Nc3ccccc32)c2ccccc2)cc1 [Example 367, (Z)-3-{1-[4-(N-acetylaminomethylcarbonyl-N-methyl-amino)-phenylamino]-1-phenyl-methylidene}-2-indolinone]
32 | 260 to 261 °C | CN(C)CCNS(=O)(=O)c1ccc(N/C(=C2\C(=O)Nc3ccc([N+](=O)[O-])cc32)c2ccccc2)cc1 [Example 401, (Z)-3-{1-[4-(2-dimethylamino-ethylaminosulphonyl)-phenylamino]-1-phenyl-methylidene}-5-nitro-2-indolinone]
33 | 198 to 200 °C | COCCN(C)C(=O)c1ccc(N/C(=C2\C(=O)Nc3ccccc32)c2ccccc2)cc1 [Example 389, (Z)-3-{1-[4-(N-(2-methoxyethyl)-N-methyl-aminocarbonyl)-phenylamino]-1-phenyl-methylidene}-2-indolinone]
